Test results as given in patent US20250230193A1, “CYCLIC COMPOUND HAVING SELECTIVE KRAS INHIBITORY EFFECT ON HRAS AND NRAS” (CHUGAI SEIYAKU KABUSHIKI KAISHA, priority 2022, published 2025).

How the values were obtained:
[1] = biological target: GDP-bound NRAS wild-type protein (Homo sapiens, UniProt P01111); assay: Binding to NRAS by surface plasmon resonance (SPR), Single Cycle Kinetics; details: KD ratio, GDP-bound NRAS wild-type vs GDP-bound KRAS wild-type, SPR
[2] = biological target: GDP-bound HRAS wild-type protein (Homo sapiens, UniProt P01112); assay: Binding to HRAS by surface plasmon resonance (SPR), Single Cycle Kinetics; details: KD ratio, GDP-bound HRAS wild-type vs GDP-bound KRAS wild-type, SPR
Sequence of GDP-bound HRAS wild-type protein (P01112 whole entry): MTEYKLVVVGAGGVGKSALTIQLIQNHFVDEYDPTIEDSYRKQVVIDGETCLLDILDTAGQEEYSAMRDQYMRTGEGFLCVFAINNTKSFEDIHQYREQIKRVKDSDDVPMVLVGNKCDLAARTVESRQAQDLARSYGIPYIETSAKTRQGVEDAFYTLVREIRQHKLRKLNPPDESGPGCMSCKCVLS

Sequence of GDP-bound NRAS wild-type protein (P01111 whole entry): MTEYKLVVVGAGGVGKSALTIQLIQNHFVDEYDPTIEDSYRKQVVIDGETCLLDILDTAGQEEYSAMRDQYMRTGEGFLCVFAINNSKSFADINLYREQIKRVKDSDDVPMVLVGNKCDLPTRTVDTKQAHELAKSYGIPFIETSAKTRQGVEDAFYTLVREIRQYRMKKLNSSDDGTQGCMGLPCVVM

Compound	NRAS/KRAS (ratio of KD value for NRAS to KD value for KRAS) [1]	HRAS/KRAS (ratio of KD value for HRAS to KD value for KRAS) [2]
CCO[C@@H]1C[C@H]2C(=O)NC3(CC(C)(C)C3)C(=O)N(C)[C@@H](C3CCCC3)C(=O)N(C)[C@H](C(=O)N(C)CC)CC(=O)N(C)[C@@H](CC3CC3)C(=O)N[C@@H]([C@@H](C)CC)C(=O)N(C)CC(=O)N(C)[C@H]3C/C=C\CCN(C3=O)[C@@H](Cc3ccc(C(F)(F)F)cc3)C(=O)N(C)CC(=O)N[C@@H](CCc3cc(F)c(C(F)(F)F)c(F)c3)C(=O)N2C1 [PP1648]	A (a compound having 10 or more and less than 20 is denoted as A)	A (a compound having 10 or more and less than 20 is denoted as A)
CCCC[C@H]1C(=O)N[C@@H]([C@@H](C)CC)C(=O)N(C)CC(=O)N(C)[C@H]2C/C=C\CCN(C2=O)[C@@H](Cc2ccc(C(F)(F)F)cc2)C(=O)N(C)CC(=O)N[C@@H](CCc2cc(F)c(C(F)(F)F)c(F)c2)C(=O)N2C[C@H](OCC)C[C@H]2C(=O)NC2(CC(C)(C)C2)C(=O)N(C)[C@@H](C2CCCC2)C(=O)N(C)[C@H](C(=O)N(C)C)CC(=O)N1C [PP1649]	A (a compound having 10 or more and less than 20 is denoted as A)	B (a compound having 3 or more and less than 10 is denoted as B)
CCO[C@@H]1C[C@H]2C(=O)NC3(CC(C)(C)C3)C(=O)N(C)[C@@H](C3CCCC3)C(=O)N(C)[C@H](C(=O)N(C)C)CC(=O)N(C)[C@@H](CC(C)C)C(=O)N[C@@H]([C@@H](C)CC)C(=O)N(C)CC(=O)N(C)[C@H]3C/C=C\CCN(C3=O)[C@@H](Cc3ccc(C(F)(F)F)cc3)C(=O)N(C)CC(=O)N[C@@H](CCc3cc(F)c(C(F)(F)F)c(F)c3)C(=O)N2C1 [PP1650, (2S,8S,12R,14S,20S,23S,27S,30S,36S,38Z)-20-cyclopentyl-8-[2-[3,5-difluoro-4-(trifluoromethyl)phenyl]ethyl]-12-ethoxy-27-isobutyl-N,N,3′,3′,4,19,22,26,32,35-decamethyl-30-[(1S)-1-methylpropyl]-3,6,9,15,18,21,25,28,31,34,42-undecaoxo-2-[[4-(trifluoromethyl)phenyl]methyl]spiro[1,4,7,10,16,19,22,26,29,32,35-undecazatricyclo[34.5.1.0^10,14]dotetracont-38-ene-17,1′-cyclobutane]-23-carboxamide]	A (a compound having 10 or more and less than 20 is denoted as A)	A (a compound having 10 or more and less than 20 is denoted as A)
CCO[C@@H]1C[C@H]2C(=O)NC3(CC(C)(C)C3)C(=O)N(C)[C@@H](C3CCCC3)C(=O)N(C)[C@H](C(=O)N(C)C)CC(=O)N(C)[C@@H](CC3CCC3)C(=O)N[C@@H]([C@@H](C)CC)C(=O)N(C)CC(=O)N(C)[C@H]3C/C=C\CCN(C3=O)[C@@H](Cc3ccc(C(F)(F)F)cc3)C(=O)N(C)CC(=O)N[C@@H](CCc3cc(F)c(C(F)(F)F)c(F)c3)C(=O)N2C1 [PP1651]	A (a compound having 10 or more and less than 20 is denoted as A)	B (a compound having 3 or more and less than 10 is denoted as B)
CCO[C@@H]1C[C@H]2C(=O)NC3(CC(C)(C)C3)C(=O)N(C)[C@@H](C3CCCC3)C(=O)N(C)[C@H](C(=O)N(C)CC)CC(=O)N(C)[C@@H](CC)C(=O)N[C@@H]([C@@H](C)CC)C(=O)N(C)CC(=O)N(C)[C@H]3C/C=C\CCN(C3=O)[C@@H](Cc3ccc(C(F)(F)F)cc3)C(=O)N(C)CC(=O)N[C@@H](CCc3ccc(C(F)(F)F)c(OC)c3)C(=O)N2C1 [PP1653]	A (a compound having 10 or more and less than 20 is denoted as A)	A (a compound having 10 or more and less than 20 is denoted as A)
